# Results as given in patent US10709758B2 (priority 2015, dated 2020).
# Biological target: TcdB1 (Clostridioides difficile, UniProt P18177)
# Sequence (P18177 2-2366 limits assumed): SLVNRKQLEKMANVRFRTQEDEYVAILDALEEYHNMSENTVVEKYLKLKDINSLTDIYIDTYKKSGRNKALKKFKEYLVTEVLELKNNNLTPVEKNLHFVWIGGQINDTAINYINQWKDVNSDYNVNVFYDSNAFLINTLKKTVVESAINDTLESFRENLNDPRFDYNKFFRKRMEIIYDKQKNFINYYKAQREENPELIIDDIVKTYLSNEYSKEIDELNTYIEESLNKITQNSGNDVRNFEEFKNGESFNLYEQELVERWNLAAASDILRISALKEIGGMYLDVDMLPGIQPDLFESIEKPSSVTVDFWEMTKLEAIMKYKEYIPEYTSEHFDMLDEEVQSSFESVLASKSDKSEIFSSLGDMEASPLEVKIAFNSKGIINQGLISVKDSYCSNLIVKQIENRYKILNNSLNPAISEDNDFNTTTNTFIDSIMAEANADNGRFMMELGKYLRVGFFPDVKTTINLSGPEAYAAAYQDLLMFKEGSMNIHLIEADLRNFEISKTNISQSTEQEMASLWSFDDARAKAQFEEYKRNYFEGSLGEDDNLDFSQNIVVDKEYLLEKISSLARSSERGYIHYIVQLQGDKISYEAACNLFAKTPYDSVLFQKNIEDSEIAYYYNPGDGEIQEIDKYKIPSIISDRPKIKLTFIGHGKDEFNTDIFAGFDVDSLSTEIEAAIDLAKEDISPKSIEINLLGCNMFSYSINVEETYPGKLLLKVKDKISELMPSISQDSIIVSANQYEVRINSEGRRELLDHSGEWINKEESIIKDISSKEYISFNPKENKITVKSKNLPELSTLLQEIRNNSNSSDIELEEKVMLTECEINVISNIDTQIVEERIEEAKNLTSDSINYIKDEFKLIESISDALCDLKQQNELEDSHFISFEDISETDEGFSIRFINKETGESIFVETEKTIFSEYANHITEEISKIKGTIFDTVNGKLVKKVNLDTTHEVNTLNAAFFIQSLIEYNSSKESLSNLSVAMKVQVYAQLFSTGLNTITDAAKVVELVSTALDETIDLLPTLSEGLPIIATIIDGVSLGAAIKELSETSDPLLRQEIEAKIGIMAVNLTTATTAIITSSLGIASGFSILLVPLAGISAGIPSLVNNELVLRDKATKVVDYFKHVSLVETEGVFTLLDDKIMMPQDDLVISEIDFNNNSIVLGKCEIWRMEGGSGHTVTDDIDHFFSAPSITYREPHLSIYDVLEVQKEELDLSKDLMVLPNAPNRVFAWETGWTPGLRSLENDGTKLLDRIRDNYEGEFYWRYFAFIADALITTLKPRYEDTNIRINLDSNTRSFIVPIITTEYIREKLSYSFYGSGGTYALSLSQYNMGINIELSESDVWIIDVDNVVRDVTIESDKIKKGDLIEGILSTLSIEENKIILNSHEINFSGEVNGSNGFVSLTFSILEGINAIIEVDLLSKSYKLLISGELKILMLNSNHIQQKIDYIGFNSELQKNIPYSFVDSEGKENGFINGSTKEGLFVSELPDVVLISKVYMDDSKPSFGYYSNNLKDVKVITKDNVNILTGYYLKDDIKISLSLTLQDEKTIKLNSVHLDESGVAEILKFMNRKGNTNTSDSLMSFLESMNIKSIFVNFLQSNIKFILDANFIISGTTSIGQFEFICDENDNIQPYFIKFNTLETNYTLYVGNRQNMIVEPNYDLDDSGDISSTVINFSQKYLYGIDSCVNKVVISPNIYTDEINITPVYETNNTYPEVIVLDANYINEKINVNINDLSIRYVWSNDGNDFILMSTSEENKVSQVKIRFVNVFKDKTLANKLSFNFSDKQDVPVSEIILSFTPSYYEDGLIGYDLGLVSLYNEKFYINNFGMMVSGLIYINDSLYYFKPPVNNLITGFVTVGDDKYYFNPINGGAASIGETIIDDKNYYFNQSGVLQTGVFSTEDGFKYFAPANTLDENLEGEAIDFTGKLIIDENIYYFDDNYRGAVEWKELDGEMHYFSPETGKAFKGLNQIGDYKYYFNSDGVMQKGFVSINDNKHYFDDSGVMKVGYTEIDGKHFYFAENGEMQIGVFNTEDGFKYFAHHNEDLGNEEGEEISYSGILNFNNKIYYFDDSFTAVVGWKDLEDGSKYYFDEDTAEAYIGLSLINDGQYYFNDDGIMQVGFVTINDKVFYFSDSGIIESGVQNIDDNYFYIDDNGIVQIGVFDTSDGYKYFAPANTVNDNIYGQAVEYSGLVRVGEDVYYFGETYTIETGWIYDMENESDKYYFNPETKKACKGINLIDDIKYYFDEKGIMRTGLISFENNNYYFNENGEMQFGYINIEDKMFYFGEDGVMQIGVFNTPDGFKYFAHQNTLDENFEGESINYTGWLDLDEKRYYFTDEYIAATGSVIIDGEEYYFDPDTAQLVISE
row,Sequence,TcdB inhibitory activity of PepB2/PepB1 substitution variants
1,NVFKDKTISDKISFNFSDK [PepB2-GN5-6DK],inhibitory activity of the resulting peptide was lost
2,NVFKSNTISDKISFNFSDK [PepB2-G5S],activity was also lost
3,NVFKDNTISDKISFNFSDK [PepB2-G5D],inhibitor activity was lost
4,NVFKGKTISDKISFNFSDK [PepB2-N6K],TcdB inhibitory activity also disappeared
5,NVFKGNTLANKLSFNFSDK [PepB1-DK5-6GN],Inhibitory activity was gained
